Like-named read-outs stand apart in the source and are kept apart here.
Assays:
[1] = target: T1, A156T mutant of the HCV NS3/4A 1b protease enzyme (Hepatitis C virus genotype 1b, UniProt P26663, A1182T); experiment: HCV Protease FRET Assay (IC50), A156T mutant; format: biochemical; details: read-out: Inhibition, HCV A156T; A156T enzyme, FRET assay
T1 construct: 10× stocks of NS3/4A protease enzyme from Bioenza (Mountain View, Calif.); purchased Bioenza (Mountain View, Calif.)
Description: HCV Protease FRET Assay for Wild Type and Mutated NS3/4A 1b Enzymes (IC50)
The protocol is a modified FRET-based assay (v—02) from In Vitro Resistance Studies of HCV Serine Protease Inhibitors, 2004, JBC, vol. 279, No. 17, pp 17508-17514.
10× stocks of NS3/4A protease enzyme from Bioenza (Mountain View, Calif.) and 1.13× 5-FAM/QXL™ 520 FRET peptide substrate from Anaspec (San Jose, Calif.) were prepared in 50 mM HEPES, pH 7.8, 100 mM NaCl, 5 mM DTT and 20% glycerol. 5 μL of each enzyme were pre-incubated in a Corning (#3573) 384-well, black, non-treated microtiter plate (Corning, N.Y.) for 30 min at 25° C. with a 0.5 μL volume of 50% DMSO and serially diluted compounds prepared in 50% DMSO. Protease reactions were started with the addition of 45 μL of the FRET substrate and monitored for 120 minutes at λex487/λem514 through Quad^4 monochromoters in a Synergy^4 plate reader from BioTek (Winooski, Vt.). At the conclusion of each assay, progress curves from each well were examined for linear reaction kinetics and fit statistics (R^2, absolute sum of squares). Initial velocity (0 minutes to 30+ minutes) from each reaction was determined from the slope of a plot of relative fluorescence units vs time (minutes) and then plotted against inhibitor concentration to estimate IC50 from log[Inhibitor] vs Response, Variable Slope model in GraphPad Prism from GraphPad Software (San Diego, Calif.).
The compound numbers correspond to the compound numbers in Table 3. […] ;

[2] = system: HCV RNA replicon in cell line ET (luc-ubi-neo/ET), human Huh7 hepatoma; experiment: Method A: HCV RNA replicon antiviral assay (luciferase, ET cell line); format: cell-based, Hepatitis C virus; details: Hepatitis C virus, Huh-7
Method in brief: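 Six 3-fold dilutions of each drug were tested on subconfluent luc-ubi-neo/ET Huh7 replicon cells (5×10^3/well) for 72 hr at 37 °C. EC50 and EC90 came from luciferase read-out, IC50 from CytoTox-1 cell number, and […]; interferon alpha-2b was run each time as control.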

[3] = target: T2, wild type HCV NS3/4A 1b protease enzyme (Hepatitis C virus genotype 1b, UniProt P26663); experiment: biochemical; format: biochemical; details: read-out: Inhibition, WT; WT enzyme, FRET assay
T2 construct: 10× stocks of NS3/4A protease enzyme from Bioenza (Mountain View, Calif.); purchased Bioenza (Mountain View, Calif.)

[4] = target: T1, A156T mutant of the HCV NS3/4A 1b protease enzyme; experiment: HCV Protease FRET Assay (IC50_APP), A156T mutant; format: biochemical
[5] = target: T3, D168A mutant of the HCV NS3/4A 1b protease enzyme (Hepatitis C virus genotype 1b, UniProt P26663, D1194A); experiment: HCV Protease FRET Assay (IC50_APP), D168A mutant; format: biochemical
T3 construct: 10× stocks of NS3/4A protease enzyme from Bioenza (Mountain View, Calif.); purchased Bioenza (Mountain View, Calif.)

[6] = system: cell line ET (luc-ubi-neo/ET), human Huh7 hepatoma cell line; experiment: Method A: cytotoxicity in ET replicon cells (CytoTox-1); format: cell-based; details: concentration decreasing cell viability by 50%, 72 hr
Method in brief: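 ET cells (Huh7 carrying luciferase HCV replicon), 5×10^3 cells/well, given six 3-fold compound concentrations in DMEM with 5% FBS. After 72 hr, while subconfluent, cell number was measured with CytoTox-1 reagent. Interferon alpha-2b served as positive control.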

[7] = target: T2, wild type HCV NS3/4A 1b protease enzyme; experiment: HCV Protease FRET Assay (IC50_APP), wild type; format: biochemical; details: read-out: IC50_APP, WT; apparent IC50, wild type NS3/4A 1b
[8] = target: T3, D168A mutant of the HCV NS3/4A 1b protease enzyme; experiment: HCV Protease FRET Assay (IC50), D168A mutant; format: biochemical; details: read-out: Inhibition, HCV D168A; D168A enzyme, FRET assay
[9] = Replicon, assay of Example 22, 72 hr, read-out: Inhibition, Replicon
[10] = assay described in Example 22, read-out: Replicon (IC50)
[11] = apparent IC50, A156T mutant; read-out: IC50_APP, HCV A156T
[12] = apparent IC50, D168A mutant; read-out: IC50_APP, HCV D168A

C=C[C@@H]1C[C@]1(NC(=O)[C@@H]1C[C@@H](Oc2cc(-c3ccccc3)nc3cc(OC)ccc23)CN1C(=O)[C@H](CCN(C)C(=O)CCl)NC(=O)OC(C)(C)C)C(=O)NS(=O)(=O)c1ccccc1 [Compound I-9, (2S)-2-[[(1,1-dimethylethoxy)carbonyl]amino]-4-(chloroacetyl)methylamino-butanoyl-(4R)-4-[(7-methoxy-2-phenyl-4-quinolinyl)oxy]-L-prolyl-1-amino-2-ethenyl-N-(phenylsulfonyl)-(1R,2S)-cyclopropanecarboxamide]
IC50 [1]: < 10 nM | IC90 ([2]; assay described in Example 22): > 10000 nM | IC50 [2, 9]: 10 to 100 nM | IC50 [2, 10]: 10 to 100 nM | IC50 [3]: < 10 nM | IC50 ([4]; read-out: IC50_APP, HCV A156T; apparent IC50, A156T mutant): 10 to 100 nM | IC50 ([5]; read-out: IC50_APP, HCV D168A; apparent IC50, D168A mutant): 100 to 1000 nM | Inhibition, Cytotoxicity [6]: C (IC50>100 nM and ≦1000 nM) | IC50 [7]: < 10 nM | IC50 [8]: < 10 nM

C=CC(=O)N(C)CC[C@H](NC(=O)OC(C)(C)C)C(=O)N1C[C@H](Oc2cc(-c3ccccc3)nc3cc(OC)ccc23)C[C@H]1C(=O)N[C@]1(C(=O)NS(=O)(=O)c2ccccc2)C[C@H]1C=C [Compound I-12, (2S)-2-[[(1,1-dimethylethoxy)carbonyl]amino]-4-(2-propenoyl)methylamino-butanoyl-(4R)-4-[(7-methoxy-2-phenyl-4-quinolinyl)oxy]-L-prolyl-1-amino-2-ethenyl-N-(phenylsulfonyl)-(1R,2S)-cyclopropanecarboxamide]
IC50 [1]: 10 to 100 nM | IC90 ([2]; assay described in Example 22): 100 to 1000 nM | IC50 [2, 9]: 10 to 100 nM | IC50 [2, 10]: 10 to 100 nM | IC50 [3]: < 10 nM | IC50 [4, 11]: 1000 to 10000 nM | IC50 [5, 12]: 1000 to 10000 nM | Inhibition, Cytotoxicity [6]: D (IC50>1000 nM and <10,000 nM) | IC50 [7]: < 10 nM | IC50 [8]: 10 to 100 nM

C=C[C@@H]1C[C@]1(NC(=O)[C@@H]1C[C@@H](Oc2cc(-c3ccccc3)nc3cc(OC)ccc23)CN1C(=O)[C@H](CNC(=O)C(C)Br)NC(=O)OC(C)(C)C)C(=O)NS(=O)(=O)c1ccccc1 (stereo partly drawn) [Compound I-22, tert-butyl(S)-3-(2-bromopropanamido)-1-((2S,4R)-4-(7-methoxy-2-phenylquinolin-4-yloxy)-2-((1R,2S)-1-(phenylsulfonylcarbamoyl)-2-vinylcyclopropylcarbamoyl)pyrrolidin-1-yl)-1-oxopropan-2-ylcarbamate]
IC50 [1]: 10 to 100 nM | IC90 ([2]; assay described in Example 22): > 10000 nM | IC50 [2, 9]: 100 to 1000 nM | IC50 [2, 10]: 100 to 1000 nM | IC50 [3]: < 10 nM | IC50 [4, 11]: 1000 to 10000 nM | IC50 [5, 12]: 1000 to 10000 nM | Inhibition, Cytotoxicity [6]: D (IC50>1000 nM and <10,000 nM) | IC50 [7]: < 10 nM | IC50 [8]: 10 to 100 nM

C=CC(=O)N(C)C[C@H](NC(=O)OC(C)(C)C)C(=O)N1C[C@H](Oc2cc(-c3ccccc3)nc3cc(OC)ccc23)C[C@H]1C(=O)N[C@]1(C(=O)NS(=O)(=O)c2ccccc2)C[C@H]1C=C [Compound I-28, tert-butyl-(S)-1-((2S,4R)-4-(7-methoxy-2-phenylquinolin-4-yloxy)-2-((1R,2S)-1-(phenylsulfonylcarbamoyl)-2-vinylcyclopropylcarbamoyl)pyrrolidin-1-yl)-3-(N-methylacrylamido)-1-oxopropan-2-ylcarbamate]
IC50 [1]: 10 to 100 nM | IC90 ([2]; assay described in Example 22): 100 to 1000 nM | IC50 [2, 9]: < 10 nM | IC50 [2, 10]: 10 to 100 nM | IC50 [3]: < 10 nM | IC50 [4, 11]: 1000 to 10000 nM | IC50 [5, 12]: 1000 to 10000 nM | Inhibition, Cytotoxicity [6]: D (IC50>1000 nM and <10,000 nM) | IC50 [7]: < 10 nM | IC50 [8]: 100 to 1000 nM

C=C[C@@H]1C[C@]1(NC(=O)[C@@H]1C[C@@H](Oc2cc(-c3ccccc3)nc3cc(OC)ccc23)CN1C(=O)[C@H](CN(C)C(=O)[C@H](Cl)c1ccccc1)NC(=O)OC(C)(C)C)C(=O)NS(=O)(=O)c1ccccc1 [Compound I-33, tert-butyl-(2S)-3-(2-chloro-N-methyl-2-phenylacetamido)-1-((2S,4R)-4-(7-methoxy-2-phenylquinolin-4-yloxy)-2-((1R,2S)-1-(phenylsulfonylcarbamoyl)-2-vinylcyclopropylcarbamoyl)pyrrolidin-1-yl)-1-oxopropan-2-ylcarbamate]
IC50 [1]: 100 to 1000 nM | IC90 ([2]; assay described in Example 22): 10 to 100 nM | IC50 [2, 9]: < 10 nM | IC50 [2, 10]: < 10 nM | IC50 [3]: < 10 nM | IC50 [4, 11]: 1000 to 10000 nM | IC50 [5, 12]: 1000 to 10000 nM | Inhibition, Cytotoxicity [6]: E (IC50≧10,000 nM) | IC50 [7]: < 10 nM | IC50 [8]: 100 to 1000 nM

C=CC(=O)NC[C@H](NC(=O)OC(C)(C)C)C(=O)N1C[C@H](Oc2cc(-c3ccccc3)nc3cc(OC)ccc23)C[C@H]1C(=O)N[C@]1(C(=O)NS(=O)(=O)C2CC2)C[C@H]1C=C [Compound I-35, tert-butyl-(S)-3-acrylamido-1-((2S,4R)-2-((1R,2S)-1-(cyclopropylsulfonylcarbamoyl)-2-vinylcyclopropylcarbamoyl)-4-(7-methoxy-2-phenylquinolin-4-yloxy)pyrrolidin-1-yl)-1-oxopropan-2-ylcarbamate]
IC50 [1]: < 10 nM | IC90 ([2]; assay described in Example 22): 100 to 1000 nM | IC50 [2, 9]: < 10 nM | IC50 [2, 10]: 10 to 100 nM | IC50 [3]: < 10 nM | IC50 [4, 11]: 100 to 1000 nM | IC50 [5, 12]: 100 to 1000 nM | Inhibition, Cytotoxicity [6]: C (IC50>100 nM and ≦1000 nM) | IC50 [7]: < 10 nM | IC50 [8]: < 10 nM

C=CC(=O)NCC(=O)N1C[C@H](Oc2cc(-c3ccccc3)nc3cc(OC)ccc23)C[C@H]1C(=O)N[C@]1(C(=O)NS(=O)(=O)C2CC2)C[C@H]1C=C [Compound I-39, (2S,4R)-1-(2-acrylamidoacetyl)-N-((1R,2S)-1-(cyclopropylsulfonylcarbamoyl)-2-vinylcyclopropyl)-4-(7-methoxy-2-phenylquinolin-4-yloxy)pyrrolidine-2-carboxamide]
IC50 [1]: < 10 nM | IC90 ([2]; assay described in Example 22): 100 to 1000 nM | IC50 [2, 9]: 10 to 100 nM | IC50 [2, 10]: 10 to 100 nM | IC50 [3]: < 10 nM | IC50 [4, 11]: 10 to 100 nM | IC50 [5, 12]: 100 to 1000 nM | Inhibition, Cytotoxicity [6]: C (IC50>100 nM and ≦1000 nM) | IC50 [7]: < 10 nM | IC50 [8]: < 10 nM

C=CC(=O)N[C@H](C)C(=O)N1C[C@H](Oc2cc(-c3ccccc3)nc3cc(OC)ccc23)C[C@H]1C(=O)N[C@]1(C(=O)NS(=O)(=O)c2ccccc2)C[C@H]1C=C [Compound I-46, (2S,4R)-1-((R)-2-acrylamidopropanoyl)-4-(7-methoxy-2-phenylquinolin-4-yloxy)-N-((1R,2S)-1-(phenylsulfonylcarbamoyl)-2-vinylcyclopropyl)pyrrolidine-2-carboxamide]
IC50 [1]: < 10 nM | IC90 ([2]; assay described in Example 22): < 10 nM | IC50 [2, 9]: < 10 nM | IC50 [2, 10]: < 10 nM | IC50 [3]: < 10 nM | IC50 [4, 11]: 10 to 100 nM | IC50 [5, 12]: 100 to 1000 nM | Inhibition, Cytotoxicity [6]: C (IC50>100 nM and ≦1000 nM) | IC50 [7]: < 10 nM | IC50 [8]: < 10 nM
